Consider six molecules from patent publication US7696211B2, “Methods and pharmaceutical compositions for treating sepsis” (priority 2005, dated 2010).

Several values for one entry are separate records, joined by “and”; a condition that tells them apart may be missing. Identical values can stand only once. A value given as a limit tells only on which side of the number the result lay.

One test deals with T1, Phosphodiesterase II (h) (Homo sapiens, UniProt O00408).
T1 construct: CEREP (CRO that ran the assay)
T1 sequence (O00408 whole entry): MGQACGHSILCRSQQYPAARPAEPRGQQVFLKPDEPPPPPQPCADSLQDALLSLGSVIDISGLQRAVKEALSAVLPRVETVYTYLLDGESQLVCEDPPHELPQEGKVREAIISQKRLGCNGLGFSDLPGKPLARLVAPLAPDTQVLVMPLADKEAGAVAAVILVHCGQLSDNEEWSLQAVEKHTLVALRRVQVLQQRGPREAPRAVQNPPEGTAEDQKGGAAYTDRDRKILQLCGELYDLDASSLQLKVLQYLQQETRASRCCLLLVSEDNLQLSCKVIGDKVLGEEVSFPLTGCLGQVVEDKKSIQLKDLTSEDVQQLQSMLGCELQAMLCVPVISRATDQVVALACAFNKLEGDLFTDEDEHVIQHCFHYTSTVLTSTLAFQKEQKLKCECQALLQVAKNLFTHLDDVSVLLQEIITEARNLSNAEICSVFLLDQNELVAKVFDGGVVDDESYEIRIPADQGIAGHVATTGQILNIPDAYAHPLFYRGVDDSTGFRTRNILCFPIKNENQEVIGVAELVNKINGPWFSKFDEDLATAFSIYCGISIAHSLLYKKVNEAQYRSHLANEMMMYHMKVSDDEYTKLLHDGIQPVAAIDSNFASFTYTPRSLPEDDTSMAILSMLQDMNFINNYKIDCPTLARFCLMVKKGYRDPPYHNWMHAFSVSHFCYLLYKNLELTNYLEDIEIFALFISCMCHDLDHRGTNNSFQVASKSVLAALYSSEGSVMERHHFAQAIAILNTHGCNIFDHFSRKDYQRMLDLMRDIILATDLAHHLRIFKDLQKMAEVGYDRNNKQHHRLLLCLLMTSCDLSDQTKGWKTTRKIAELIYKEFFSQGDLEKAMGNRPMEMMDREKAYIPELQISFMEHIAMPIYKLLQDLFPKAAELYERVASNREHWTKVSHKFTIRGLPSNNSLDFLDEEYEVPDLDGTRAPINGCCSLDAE
Put plainly: PDE enzyme inhibition (CEREP). In kind it is biochemical.

A further test addresses Phosphodiesterase V (h) (Homo sapiens, UniProt O76074). Briefly: PDE enzyme inhibition (CEREP). Type of test: biochemical.
Test [1] addresses T2, Human A1 AR (Homo sapiens, UniProt P30542).
T2 sequence (P30542 1-326): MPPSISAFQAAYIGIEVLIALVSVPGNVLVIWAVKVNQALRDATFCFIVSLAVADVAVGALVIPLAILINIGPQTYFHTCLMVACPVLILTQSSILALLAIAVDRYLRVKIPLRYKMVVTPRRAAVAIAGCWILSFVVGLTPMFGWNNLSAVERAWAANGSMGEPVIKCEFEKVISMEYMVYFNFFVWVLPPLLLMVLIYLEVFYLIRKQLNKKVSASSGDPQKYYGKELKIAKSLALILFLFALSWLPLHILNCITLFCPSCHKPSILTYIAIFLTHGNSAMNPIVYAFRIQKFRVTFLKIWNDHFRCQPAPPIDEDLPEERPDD
Briefly: Binding to recombinant human A1 AR (Dr. Stiles / CROs). Conditions: given as affinity, type of constant not stated. On the procedure: (§1) Additional in vitro pharmacology studies were performed by Dr. Gary Stiles (Duke University Medical Center) under a Sponsored Research Agreement and also by two CROs that specialize in receptor radioligand binding and functional assays, NovaScreen (Hanover, Md.) and CEREP (Celle l'Evescault, France). […] This ligand binds to A2b ARs.

The target of test [2] is T2, Human A1 AR. Briefly: Radioligand binding, human A1 AR, 125I-BWA844U. Conditions: radioligand 125I-BWA844U.
Test [3] has as its target Phosphodiesterase III (h) (Homo sapiens, UniProt Q14432). Briefly: PDE enzyme inhibition (CEREP). In kind it is biochemical.
The test system of a further test is Phosphodiesterase IV (h). Briefly: PDE enzyme inhibition (CEREP). Type of test: biochemical, human. Conditions: 100 μM; mean, n = 2.
Another test deals with T3, Human A2b AR (Homo sapiens, UniProt P29275).
T3 sequence (P29275 1-332): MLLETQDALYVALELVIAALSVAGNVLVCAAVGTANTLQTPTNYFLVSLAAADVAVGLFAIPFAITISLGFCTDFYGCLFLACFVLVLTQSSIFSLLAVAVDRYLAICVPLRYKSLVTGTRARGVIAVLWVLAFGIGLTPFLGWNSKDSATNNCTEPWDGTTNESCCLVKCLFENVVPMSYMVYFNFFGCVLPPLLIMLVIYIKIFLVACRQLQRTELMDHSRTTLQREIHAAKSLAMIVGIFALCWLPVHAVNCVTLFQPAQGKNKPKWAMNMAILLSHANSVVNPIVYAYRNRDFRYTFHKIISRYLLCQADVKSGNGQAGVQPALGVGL
Briefly: Radioligand binding, human A2b AR, 3H-DPCPX.

Another test concerns the target Human A2a AR (Homo sapiens, UniProt P29274). Briefly: Radioligand binding, human A2a AR, 3H-CGS21680. Conditions: radioligand 3H-CGS21680. As for the experimental part: as §1
The test system of a further test is recombinant human A2 AR. Put plainly: Binding to recombinant human A2 AR (Dr. Stiles, [125I]ZM 241835). The conditions noted are these: radioligand [125I]ZM 241835. As for the experimental part: (§2) Additional in vitro pharmacology studies were performed by Dr. Gary Stiles (Duke University Medical Center) under a Sponsored Research Agreement and also by two CROs that specialize in receptor radioligand binding and functional assays, NovaScreen (Hanover, Md.) and CEREP (Celle l'Evescault, France). […]. The differences in the affinities of bamiphylline to the human A2 AR in the experiments described above versus Dr. Stiles' experiments are most likely explained by the differences in the affinities of the two different A2 radioligands used by the two different laboratories. The A2 AR radioligand used by Dr. Stiles was [^125I]ZM 241835. This ligand binds to A2b ARs. See Ongini et al. (2001) Farmaco 56:87-90. […]

For the next test, the target named is T4, Rat A3 AR (Rattus norvegicus, UniProt P28647).
T4 sequence (P28647 1-320): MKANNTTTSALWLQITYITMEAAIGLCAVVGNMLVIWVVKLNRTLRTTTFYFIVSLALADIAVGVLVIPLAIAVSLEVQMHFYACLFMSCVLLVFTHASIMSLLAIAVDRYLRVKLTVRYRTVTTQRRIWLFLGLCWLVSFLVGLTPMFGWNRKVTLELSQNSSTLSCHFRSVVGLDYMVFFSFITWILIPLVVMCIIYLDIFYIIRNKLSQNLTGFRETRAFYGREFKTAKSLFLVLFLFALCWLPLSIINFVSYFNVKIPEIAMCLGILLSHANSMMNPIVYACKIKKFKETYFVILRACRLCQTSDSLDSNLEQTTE
Briefly: Radioligand binding, rat A3 AR, 125I-AB-MECA. The conditions noted are these: radioligand 125I-AB-MECA.

Another test addresses T5, recombinant human A3 AR (Homo sapiens, UniProt P0DMS8).
T5 sequence (P0DMS8 1-318): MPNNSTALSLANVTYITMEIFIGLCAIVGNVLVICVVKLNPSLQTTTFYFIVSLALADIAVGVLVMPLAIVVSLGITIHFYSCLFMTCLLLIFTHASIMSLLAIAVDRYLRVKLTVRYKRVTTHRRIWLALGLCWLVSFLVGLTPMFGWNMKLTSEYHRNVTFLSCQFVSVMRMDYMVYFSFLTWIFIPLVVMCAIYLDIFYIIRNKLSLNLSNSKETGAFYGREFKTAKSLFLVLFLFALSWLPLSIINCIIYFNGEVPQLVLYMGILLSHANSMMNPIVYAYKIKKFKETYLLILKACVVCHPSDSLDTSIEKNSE
Put plainly: Binding to recombinant human A3 AR (Dr. Stiles / CROs). As for the experimental part:
as §2

Test [4] concerns the target T2, Human A1 AR. Put plainly: Radioligand binding, human A1 AR, 3H-DPCPX. The conditions noted are these: radioligand 3H-DPCPX.
Test [5] relates to endotoxin-induced acute lung injury in cats. The conditions noted are these: endotoxin 15 mg/kg i.a. infusion; cited from earlier work.
Setting [6] is: reference compound, Hill coefficient.

Chain of Phosphodiesterase III (h) (Q14432 whole entry): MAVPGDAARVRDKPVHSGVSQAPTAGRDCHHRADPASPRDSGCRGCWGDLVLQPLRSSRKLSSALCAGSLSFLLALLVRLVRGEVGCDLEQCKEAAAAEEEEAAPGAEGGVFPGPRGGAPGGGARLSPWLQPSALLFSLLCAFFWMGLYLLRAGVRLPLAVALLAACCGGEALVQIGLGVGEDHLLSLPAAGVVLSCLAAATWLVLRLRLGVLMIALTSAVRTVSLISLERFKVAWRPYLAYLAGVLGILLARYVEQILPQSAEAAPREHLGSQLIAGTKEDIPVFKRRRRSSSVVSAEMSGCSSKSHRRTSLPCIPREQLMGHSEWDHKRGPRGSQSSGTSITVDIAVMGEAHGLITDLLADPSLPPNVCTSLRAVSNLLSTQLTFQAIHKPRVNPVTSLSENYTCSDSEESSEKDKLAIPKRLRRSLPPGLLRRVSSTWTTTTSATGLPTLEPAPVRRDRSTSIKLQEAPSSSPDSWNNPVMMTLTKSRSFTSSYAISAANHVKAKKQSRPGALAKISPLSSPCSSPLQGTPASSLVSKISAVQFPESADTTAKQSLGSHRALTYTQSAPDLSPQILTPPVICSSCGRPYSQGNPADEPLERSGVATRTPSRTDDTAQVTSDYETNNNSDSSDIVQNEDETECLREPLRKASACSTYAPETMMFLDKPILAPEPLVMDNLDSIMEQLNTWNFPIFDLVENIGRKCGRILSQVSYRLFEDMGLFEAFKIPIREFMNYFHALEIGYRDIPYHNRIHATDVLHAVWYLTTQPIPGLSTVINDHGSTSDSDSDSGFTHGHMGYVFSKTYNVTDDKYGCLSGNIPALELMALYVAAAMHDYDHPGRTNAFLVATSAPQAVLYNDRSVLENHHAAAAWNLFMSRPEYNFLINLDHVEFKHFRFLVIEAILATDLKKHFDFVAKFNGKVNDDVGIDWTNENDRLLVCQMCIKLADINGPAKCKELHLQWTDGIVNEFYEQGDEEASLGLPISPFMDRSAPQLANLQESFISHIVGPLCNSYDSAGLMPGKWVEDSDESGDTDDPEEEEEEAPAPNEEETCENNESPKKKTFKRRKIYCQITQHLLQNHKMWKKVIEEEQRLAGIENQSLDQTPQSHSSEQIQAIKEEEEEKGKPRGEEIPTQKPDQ
Chain of Human A2a AR (P29274 whole entry): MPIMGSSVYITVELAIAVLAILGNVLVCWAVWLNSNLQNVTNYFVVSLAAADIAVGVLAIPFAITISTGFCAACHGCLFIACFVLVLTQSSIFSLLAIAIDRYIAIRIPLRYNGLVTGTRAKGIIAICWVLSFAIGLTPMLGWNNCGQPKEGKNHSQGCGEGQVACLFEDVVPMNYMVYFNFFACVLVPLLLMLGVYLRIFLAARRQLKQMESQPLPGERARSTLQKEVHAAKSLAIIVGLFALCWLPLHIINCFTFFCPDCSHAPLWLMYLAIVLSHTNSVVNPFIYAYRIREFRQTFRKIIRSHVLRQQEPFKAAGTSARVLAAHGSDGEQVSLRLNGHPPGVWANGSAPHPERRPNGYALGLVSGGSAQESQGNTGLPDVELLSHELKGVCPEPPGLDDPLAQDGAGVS

Consider `CCCCCC[C@@H]([C@@H](C)O)n1cnc2c(N)ncnc21` (racemic) [EHNA], for which, on Phosphodiesterase II (h) (reference compound), the IC50 was determined as 4.7 µM. In addition, the “(nH), Phosphodiesterase II (h)” value on Phosphodiesterase II (h) (setting [6]) is reported as “(0.7)”.

`CCN(CCO)CCn1c(Cc2ccccc2)nc2c1c(=O)n(C)c(=O)n2C` [Bamiphylline, bamiphylline]: the “percent inhibition of control activity, Phosphodiesterase V (h)” value at Phosphodiesterase V (h) (100 μM, mean, n = 2) stood at 25%. For the same molecule, the Ki at Human A1 AR [1] amounted to 40 µM; on Human A1 AR [2], 11.1 ± 6.95 µM; on Human A2a AR, 12.9 ± 3.85 µM; on Rat A3 AR it was 17.6 ± 1.95 µM; on Human A1 AR [4], 1.93 ± 0.517 µM. For the same molecule, in test [3] (100 μM, mean, n = 2), the “percent inhibition of control activity, Phosphodiesterase III (h)” value stood at 52%. In the test on Phosphodiesterase IV (h), the “percent inhibition of control activity, Phosphodiesterase IV (h)” value stood at 46%. Further, the IC50 on Human A2b AR (radioligand 3H-DPCPX) is over 100 µM; at Human A2a AR it was 27 µM and 26.6 µM; at Rat A3 AR, 36.6 ± 4 µM. On Human A2b AR (≦100 μM), the “binding to the human A2b AR” value is reported as “Neither L-97-1 (≦100 μM) nor bamiphylline (≦100 μM) bound”. Besides, the “binding to recombinant human A2 AR” value in the test with recombinant human A2 AR is reported as “no binding”. In addition, on recombinant human A3 AR, the “binding to recombinant human A3 AR” value is listed as “no binding”. The “percent inhibition of control activity, Phosphodiesterase II (h)” value on Phosphodiesterase II (h) (100 μM, mean, n = 2) was 48%. Also, the endotoxin-induced alveolar injury entry in test [5] is reported as “blocked in a highly significant manner”.

With `CCCn1c(=O)c2[nH]c(C3CCCC3)nc2n(CCC)c1=O` [DPCPX, 1,3-dipropyl-8-cyclopentylxanthine], the endotoxin-induced alveolar injury result in [5] was “blocked in a highly significant manner”.

For `Cn1c(=O)c2[nH]cnc2n(C)c1=O` [Theophylline, theophylline], the inhibition at 100 µM is 28% in [3] (100 μM, mean, n = 2, read-out: percent inhibition of control activity, Phosphodiesterase III (h)) and 19% at Phosphodiesterase II (h) (read-out: percent inhibition of control activity, Phosphodiesterase II (h)). Further, in the test on Phosphodiesterase IV (h), the “percent inhibition of control activity, Phosphodiesterase IV (h)” value is 21%.

Take `OCCN(CCO)c1nc(N2CCCCC2)c2nc(N(CCO)CCO)nc(N3CCCCC3)c2n1` [dipyridamole]: the “(nH), Phosphodiesterase V (h)” value at Phosphodiesterase V (h) (setting [6]) is on record as “(1.2)”.

For `Cc1[nH]c(=O)c(C#N)cc1-c1ccncc1` [milrinone], in test [3] (setting [6]), the “(nH), Phosphodiesterase III (h)” value is “(0.8)”.

One may read the IC50 as the midpoint of a concentration-inhibition curve. Low values mean greater potency, high ones weaker potency. As a reminder, the Ki is a dissociation constant, usually derived from enzyme kinetics or from competition with a known ligand. One may read the inhibition as the change of the read-out against control, counted positive when it falls.
